The target of one assay is PSA (Homo sapiens, UniProt P07288). Briefly: Substrate hydrolysis assay of Abz-peptide spots with purified PSA. In kind it is biochemical. As to conditions: for hydrolysis / substrate activity (in words): compared with c0.
A further assay relates to chymotrypsin. The note with it: selectivity for PSA; cited from earlier work.

Chain of PSA (P07288 25-261): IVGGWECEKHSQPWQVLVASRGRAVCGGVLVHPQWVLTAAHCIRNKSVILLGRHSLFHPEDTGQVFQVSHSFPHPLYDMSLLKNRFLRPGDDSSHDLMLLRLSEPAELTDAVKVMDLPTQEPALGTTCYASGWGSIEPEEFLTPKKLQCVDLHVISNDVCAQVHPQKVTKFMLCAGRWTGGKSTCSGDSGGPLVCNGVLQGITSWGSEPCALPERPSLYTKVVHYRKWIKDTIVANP

Regarding GSAKLQ [c7], at PSA, the “hydrolysis / substrate activity (in words)” value is reported as “high activity for PSA hydrolysis”. The “increase in the hydrolysis rate compared to c0” value at PSA (versus c0) was 2 fold.

Regarding GSSKPQ [c4], at PSA, the “hydrolysis / substrate activity (in words)” value is recorded as “almost complete loss of hydrolysis activity”.

Consider GSSKYQ [c3], for which the “hydrolysis / substrate activity (in words)” value on PSA is “high substrate activity”.

Regarding HSSKLQ, the hydrolysis by chymotrypsin entry in the assay with chymotrypsin was “no detectable hydrolysis”.

The values above are taken from publication PMC4559854 (Proteins, 2009).
